Source: PMC12527922, “Cocaine chemogenetics blunts drug-seeking by synthetic physiology” (Nature, 2025)
“And” between values parts separate entries of the source, which are not always exact repeats. Equal entries are not always repeated.

Assays:
coca-5HT3 = coca-5HT3 (Homo sapiens, UniProt P36544, G175K/L141G/Y210F/Y217F); assay: [^3H]ASEM displacement, membranes of HEK293 cells expressing coca-5HT3; format: binding, human α7 nAChR LBD, mouse 5HT3 IPD; conditions: for [3H]ASEM binding, normalised dose-response (DR replicates): HotNM 2.000
Method: (§1) Cells were suspended in Tris-HCl 50 mM pH 7.4 supplemented with protease inhibitor cocktail (1:100, Sigma-Aldrich). HEK293 cells were disrupted with a 6 Polytron homogenizer (Kinematica). Homogenates were centrifuged at 48,000g (50 min, 4 °C) and washed twice in the same conditions to isolate the membrane fraction. Protein was quantified using the bicinchoninic acid method (Pierce). […] Free and membrane-bound radioligands were separated by rapid filtration of 500 μl aliquots in a 96-well plate harvester (Brandel) and washed with 2 ml of ice-cold Tris-HCl buffer. Microscint-20 scintillation liquid (65 μl per well, PerkinElmer) was added to the filter plates, plates were incubated overnight at room temperature and radioactivity counts were determined in the MicroBeta2 plate counter (PerkinElmer) with an efficiency of 41%. Two-site competition curves were fitted using Prism 10 (GraphPad). Ki values were calculated using the Cheng–Prusoff equation.

coca-GlyR = biological target: T1, coca-GlyR (Homo sapiens, UniProt P23415+P36544, G175K/L141G/Y217F); assay: [^3H]ASEM displacement, membranes of HEK293 cells expressing coca-GlyR; format: binding
T1 construct: expressed in transfected cells; host or cells: HEK293 (ATCC CRL-1573), pcDNA3.1
Method: as §1

unmodified α7–GlyR = biological target: T2, unmodified α7–GlyR (Homo sapiens, UniProt P23415+P36544); set-up: method as in PMID 30872534; conditions: cited from earlier work
T2 construct: expressed in transfected cells; host or cells: HEK293 (ATCC CRL-1573), pcDNA3.1

α7 nAChR = conditions: cited from earlier work
unmodified α7–5HT3 = biological target: T3, unmodified α7–5HT3 (UniProt P23979+P36544); set-up: method as in PMID 30872534; conditions: cited from earlier work
T3 construct: expressed in transfected cells; host or cells: HEK293 (ATCC CRL-1573), pcDNA3.1

[1] = Two sites - Fit Ki, best-fit value per replicate
[2] = Two sites - Fit Ki, best-fit value, single experiment

coca-5HT3, sequence (P23979 242-489): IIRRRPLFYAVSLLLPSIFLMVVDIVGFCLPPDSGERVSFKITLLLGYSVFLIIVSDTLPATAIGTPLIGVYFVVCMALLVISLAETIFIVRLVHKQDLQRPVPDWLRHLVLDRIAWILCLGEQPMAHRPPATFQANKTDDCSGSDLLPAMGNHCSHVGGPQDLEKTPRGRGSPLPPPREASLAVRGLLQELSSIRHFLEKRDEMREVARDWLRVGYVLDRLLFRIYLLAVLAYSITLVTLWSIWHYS
coca-5HT3, sequence (P36544 23-224 L141G/G175K/Y210F/Y217F): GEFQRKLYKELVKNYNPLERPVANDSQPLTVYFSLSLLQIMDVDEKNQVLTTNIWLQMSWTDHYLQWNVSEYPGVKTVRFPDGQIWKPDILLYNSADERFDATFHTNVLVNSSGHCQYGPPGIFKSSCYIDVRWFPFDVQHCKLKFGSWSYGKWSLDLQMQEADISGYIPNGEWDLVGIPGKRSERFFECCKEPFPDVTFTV
T3 sequence (P36544+P23979 fused P36544:T225I/P36544:M226I): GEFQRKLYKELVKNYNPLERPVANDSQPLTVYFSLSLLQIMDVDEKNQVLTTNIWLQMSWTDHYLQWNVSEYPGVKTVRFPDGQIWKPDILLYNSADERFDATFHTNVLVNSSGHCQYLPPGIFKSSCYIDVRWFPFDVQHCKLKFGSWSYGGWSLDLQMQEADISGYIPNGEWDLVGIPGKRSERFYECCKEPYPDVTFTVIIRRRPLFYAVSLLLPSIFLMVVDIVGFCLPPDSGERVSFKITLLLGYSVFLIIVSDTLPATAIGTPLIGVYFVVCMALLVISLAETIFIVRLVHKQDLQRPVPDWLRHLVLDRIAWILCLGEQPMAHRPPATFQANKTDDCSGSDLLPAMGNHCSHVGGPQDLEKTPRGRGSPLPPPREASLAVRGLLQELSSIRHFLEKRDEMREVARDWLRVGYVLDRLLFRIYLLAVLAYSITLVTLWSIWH
T1 sequence (P36544+P23415 fused P36544:L141G/P36544:G175K/P36544:Y217F): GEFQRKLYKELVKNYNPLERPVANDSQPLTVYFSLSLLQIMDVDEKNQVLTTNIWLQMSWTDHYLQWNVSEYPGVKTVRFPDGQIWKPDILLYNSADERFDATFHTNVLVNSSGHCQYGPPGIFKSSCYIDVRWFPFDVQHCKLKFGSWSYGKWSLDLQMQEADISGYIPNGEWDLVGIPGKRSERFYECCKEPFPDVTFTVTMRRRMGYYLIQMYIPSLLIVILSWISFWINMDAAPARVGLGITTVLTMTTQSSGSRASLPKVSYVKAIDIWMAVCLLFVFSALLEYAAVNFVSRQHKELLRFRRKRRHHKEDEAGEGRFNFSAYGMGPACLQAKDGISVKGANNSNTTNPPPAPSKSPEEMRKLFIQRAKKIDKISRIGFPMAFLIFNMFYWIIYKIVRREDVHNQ
T2 sequence (P36544+P23415 fused): as the sequence (P36544+P23415 fused P36544:L141G/P36544:G175K/P36544:Y217F) above, with G119L, K153G, F195Y counted along it

O=S1(=O)c2cc(N3CCN4CCC3CC4)ccc2-c2cccc(F)c21 [ASEM]
binding to coca-5HT3 (coca-5HT3): biphasic manner
FractionHi MEAN (coca-5HT3; Two sites - Fit Ki, MEAN of 3 experiments): 0.4238
Bottom (coca-5HT3; [1]): -0.2261 and -1.876 and -13.02
Top (coca-5HT3; [1]): 108.2 and 99.61 and 97.94
FractionHi (coca-5HT3; Two sites - Fit Ki, best-fit value per replicate, fraction of high-affinity sites): 0.4342 and 0.3061 and 0.4229
FractionHi (coca-5HT3; [2]): 0.4739 and 0.3529 and 0.4445
Top (coca-5HT3; [2]): 103.6 and 103.2 and 103.8
FractionHi MEAN (coca-5HT3; Two sites - Fit Ki, MEAN of replicates): 0.3877
[3H]ASEM binding, normalised dose-response (DR replicates) (coca-5HT3; competitor log(M) -4): 0 and 2.042 and -2.042
[3H]ASEM binding remaining, single experiment (coca-5HT3; competitor log(M) -5): 21.992 and 15.466 and 20.212
[3H]ASEM binding, normalised dose-response (DR replicates) (coca-5HT3; competitor log(M) -5): 13.773 and 20.58
[3H]ASEM binding remaining, single experiment (coca-5HT3; competitor log(M) -5.5): 26.835 and 27.725
[3H]ASEM binding, normalised dose-response (DR replicates) (coca-5HT3; competitor log(M) -5.5): 32.147 and 34.87 and 51.889
[3H]ASEM binding remaining, single experiment (coca-5HT3; competitor log(M) -6): 38.451 and 39.34
[3H]ASEM binding, normalised dose-response (DR replicates) (coca-5HT3; competitor log(M) -6): 39.688 and 59.43 and 60.791
[3H]ASEM binding remaining, single experiment (coca-5HT3; competitor log(M) -6.5): 45.049 and 48.906 and 53.356
[3H]ASEM binding, normalised dose-response (DR replicates) (coca-5HT3; competitor log(M) -6.5): 51.256 and 70.998 and 34.237
[3H]ASEM binding remaining, single experiment (coca-5HT3; competitor log(M) -7): 68.627 and 77.823 and 60.024
[3H]ASEM binding, normalised dose-response (DR replicates) (coca-5HT3; competitor log(M) -7): 64.248 and 83.99 and 53.356
[3H]ASEM binding remaining, single experiment (coca-5HT3; competitor log(M) -8): 69.758 and 69.462 and 44.246
[3H]ASEM binding, normalised dose-response (DR replicates) (coca-5HT3; competitor log(M) -8): 67.668 and 43.16
[3H]ASEM binding remaining, single experiment (coca-5HT3; competitor log(M) -8.5): 79.055 and 76.385 and 69.859
[3H]ASEM binding, normalised dose-response (DR replicates) (coca-5HT3; competitor log(M) -8.5): 58.761 and 45.827 and 64.888
[3H]ASEM binding remaining, single experiment (coca-5HT3; competitor log(M) -9): 118.645 and 95.803 and 67.325
[3H]ASEM binding, normalised dose-response (DR replicates) (coca-5HT3; competitor log(M) -9): 68.4 and 67.719
[3H]ASEM binding remaining, single experiment (coca-5HT3; competitor log(M) -9.5): 111.297 and 122.273 and 76.589
[3H]ASEM binding, normalised dose-response (DR replicates) (coca-5HT3; competitor log(M) -9.5): 73.805 and 71.082 and 77.209
[3H]ASEM binding remaining, single experiment (coca-5HT3; competitor log(M) -10): 101.728 and 95.202 and 81.556
[3H]ASEM binding, normalised dose-response (DR replicates) (coca-5HT3; competitor log(M) -10): 78.63 and 99.734 and 90.884
[3H]ASEM binding remaining, single experiment (coca-5HT3; competitor log(M) -10.5): 92.261 and 100.567 and 96.414
[3H]ASEM binding, normalised dose-response (DR replicates) (coca-5HT3; competitor log(M) -10.5): 94.278 and 80.663 and 86.79
[3H]ASEM binding remaining, single experiment (coca-5HT3; competitor log(M) -11): 96.153 and 103.569 and 104.162
[3H]ASEM binding, normalised dose-response (DR replicates) (coca-5HT3; competitor log(M) -11): 97.033 and 84.779 and 104.521
[3H]ASEM binding remaining, single experiment (coca-5HT3; competitor log(M) -13): 102.966 and 93.474 and 103.56
[3H]ASEM binding, normalised dose-response (DR replicates) (coca-5HT3; competitor log(M) -13): 111.346 and 109.984
binding to coca-GlyR (coca-GlyR): biphasic manner

CN1[C@@H]2CC[C@H]1C[C@@H](OC(=O)c1c[nH]c3ccccc13)C2 [tropisetron]
activity at chimeric channel α7–GlyR (unmodified α7–GlyR): agonist
activity at α7 nAChR (α7 nAChR): agonist
activity at chimeric channel α7–5HT3 (unmodified α7–5HT3): agonist
